From patent publication US8735178B2, “Withanolides, probes and binding targets and methods of use thereof” (University of Kentucky Research Foundation, priority 2006, dated 2014)

Legend:
[1] = target: soluble hamster vimentin (Mesocricetus auratus, UniProt P02544); assay: In vitro ligand binding assay (WFA-B labelling, streptavidin-HRP blot); conditions: competitor 1 hour, then 0.3 or 1 μM WFA-B 1 hour
Source text: The proteins were fractionated by SDS-PAGE, blotted and biotinylated adduct was detected by streptaviding-HRP with chemiluminescence.

[2] = target: T1, tetrameric soluble hamster vimentin (Mesocricetus auratus, UniProt P02544); assay: In vitro vimentin filament polymerization (transmission electron microscopy); format: biochemical; conditions: 25 μM, 170 mM NaCl, 1 hour at 37° C.
T1 construct: purchased Vimentin Filament Biochemistry Kit, Denver, Colo; Cytoskeleton is named
Experimental: FIG. 3a depicts tetrameric soluble hamster vimentin polymerized in the presence of 170 mM NaCl by incubation at 37° C. for 1 hour. The protein was fixed with 0.5% glutaraldehyde, stained with uranyl acetate and observed by transmission electron microscopy.
Tetrameric hamster vimentin was subjected to in vitro filament formation assays using vendor-supplied reagents and instructions (Vimentin Filament Biochemistry Kit, Denver, Colo.). Vimentin (0.5 mg/ml) was mixed with WFA (5 μM or 25 μM), DMSO or 12D-WS (25 μM) in filament polymerization buffer (170 mM NaCl final concentration) and incubated for 1 hour at 37° C. Protein was immediately fixed in 0.5% glutarldehyde and stained with uranyl acetate and applied to copper grids for EM staining (University of Kentucky Core Microscopy and Imaging Facilities). Over 100 grids for each treatment were viewed at 80 kV on a FEI Biotwin 12 transmission electron microscope and 25 representative images were collected. The experiment was repeated in entirety.

[3] = system: BAECs; assay: Immunostaining of vimentin and actin in BAECs; format: cell-based, bovine; conditions: 3 μM, 18 hours
Experimental: (§1) BAECs treated with DMSO (FIGS. 3e, 3g, 3i) or 3 μM WFA (FIGS. 3f, 3h, 3j) for 18 hours were stained for vimentin using a monoclonal anti-vimentin antibody (green) and co-stained with phalloidin-rhodamine (red). The vimentin (FIGS. 3e, 3f) and phalloidin-stained images (FIGS. 3g, 3h), in fluorescence overlap, reveal the presence of numerous cytoplasmic particulate granules that co-stain for vimentin and disrupted F-actin in WFA-treated cells compared to controls (FIGS. 3i, 3j). […] FIG. 3l depicts higher concentrations and longer periods of exposure to WFA (4 hours) cause reduction in levels of the 56 kDa protein (asterisk) and increased abundance of cleavage products of vimentin (arrows).
To further corroborate that vimentin aggregation by WFA treatment is associated with perturbation of the cytoskeleton structure, the drug effects in BAECs were investigated by immunostaining. […] Importantly, these vimentin particulates strongly co-stain for actin (compare FIG. 3h with FIG. 3j), exemplifying the role of the WFA-binding domain in control of cytoskeletal structure through the actin-binding activity of vimentin 2B domain.
After treatments, BAECs were washed with PBS and fixed with 4% paraformaldehyde for 5 minutes. Cells were then permeabilized with 0.1% Triton-X in PBS for 20 minutes at 4° C. and blocked for 30 minutes in 3% BSA to prevent nonspecific binding. […]

[4] = target: purified hamster vimentin (Mesocricetus auratus, UniProt P02544); assay: LC-MS/MS mapping of the residue covalently modified by WFA; format: binding; conditions: tryptic digestion, molecular mass shift of 470
Experimental: Next, to identify the amino acid residue(s) of vimentin covalently modified by WFA, purified hamster vimentin was incubated with WFA and the protein-ligand complexes subjected to tryptic digestion and LC-MS/MS analysis. […] A three-dimensional model of the WFA-vimentin complex was developed using x-ray crystal structures of vimentin and WFA. […] In this simulated model, the C3 and C6 carbons of WFA lie in close proximity to the cysteine residue in the vimentin A-helix (FIG. 2b), permitting a nucleophilic attack by this thiol group on the electrophilic carbon centers (FIG. 2c). Remarkably, the amino acid residues of vimentin (Gln324, Cys328 and Asp 331) that make contact with WFA (FIG. 2c) are identical from fish to mammals, as shown in the table below.

[5] = system: MCF-7 cells transfected with human vimentin cDNA; assay: Polyubiquitinated proteins in vimentin-transfected MCF-7 cells (anti-ubiquitin blot); format: cell-based; conditions: 2 μM, not in vector controls
Experimental: Employing the widely used MCF-7 vimentin-deficient model of Bar, H. et al., Forced expression of desmin and desmin mutants in cultured cells: impact of myopathic missense mutations in the central coiled-coil domain on network formation, Exp. Cell. […] MCF-7 cells that lack endogenous IF proteins were transfected with human vimentin cDNA or a vector control and after 24 hours cells were treated with either vehicle or 2 μM WFA for 1 hour. Cell lysates were prepared and equal amounts of protein subjected to SDS-PAGE and protein blots probed with anti-ubiquitin antibody. Blots were re-probed with anti-GAPDH antibody.
MCF-7 cells were transfected with a pCMV6-XL5 vector containing the human vimentin cDNA under CMV promoter according to vendor instructions (Origene). Control samples were transfected with an empty vector (PCMV6-XL4). Transfected cells were allowed to recover for 12 hours and subsequently treated with 2 μM WFA for 18 hours. Equal amounts of protein lysates were then subjected to western blotting and probed with mouse monoclonal antibody against ubiquitin proteins.

[6] = system: embryonic fibroblast cell lines MFT-6 (Vim+/+) and MFT-16 (Vim−/−); assay: Apoptosis by flow cytometry (annexin V-FITC / propidium iodide); format: cell-based, mouse; conditions: 5 μM, 24 hours
Experimental: Referring to FIG. 4c, embryonic fibroblast cell lines derived from vimentin-deficient mice and wild-type littermates were treated with vehicle or 5 μM WFA for 24 hours. Cells were harvested and stained with annexin V-FITC and propidium iodide and extent of apoptosis assessed by flow cytometry. The fold-apoptotis for drug over vehicle-treated samples for each cell line was plotted (n=2 experiments).
To assess the apoptosis activity of WFA, embryonic fibroblast vimentin-deficient cell lines (Vim^−/−; MFT-16) and wild-type (Vim^+/+; MFT-6) cells were treated with 5 μM WFA or an equivalent amount of vehicle (DMSO) for 24 hours at 37° C.-5% CO2 conditions in complete medium. Apoptotic cells were measured by using the VYBRANT™ Apoptosis Assay Kit (Molecular Probes) according to the manufacturer's instructions. Flow cytometric analysis was conducted at the University of Kentucky Core Flow Cytometry Center.

[7] = target: bovine 20S proteasome (Bos taurus, UniProt Q32KL2); assay: 20S proteasome enzyme kinetic assay (chymotrypsin-like activity, Suc-LLVY-AMC); format: biochemical
Experimental: The chymotrypsin-like activity was assayed using the fluorogenic peptide substrates Suc-Leu-Leu-Val-Tyr-AMC (Sigma-Aldrich). […] Fluorescence was quantified as arbitrary units and progression curves were plotted for each reaction as a function of time. kobserved/[I] values were obtained using PRISM program by nonlinear least squares fit of the data to the following equation: fluorescence=vst+[(v0−vs)/kobserved][1−exp(−kobserved t)], where v0 and vs are the initial and final velocities, respectively, and kobserved is the reaction rate constant. […] Reactions were performed using inhibitor concentrations that were <100-fold of those of the proteasome assayed.

[8] = system: vimentin in HUVECs; assay: Western blot of soluble vimentin in WFA-treated HUVECs; format: cell-based, human
Experimental: as §1
As it became apparent that vimentin targeting by WFA may initiate signaling events leading to cellular apoptosis, the effect of WFA on soluble tetrameric vimentin was investigated. Using western blot analysis of soluble proteins from HUVECs treated with WFA, dose-dependent (above 2 μM) increases in vimentin cleavage products became detectable by 2 hours after drug treatment (FIGS. 3k and 3l).
After treatments, cells were washed in PBS and extracts having equal amounts of proteins were subjected to SDS-PAGE on 4-20% Tris-glycine gels (BioEpress) and transferred to Immun-Blot PVDF membrane (Bio-Rad) using standard techniques. […]

[9] = system: corneal neovascularization; assay: Injury-induced corneal neovascularization assay in mice; format: in vivo, mouse; conditions: 2 mg/kg i.p. daily for 10 days
Source text: Since WFA exerts potent angiogenesis inhibitory activity in vivo, drug activity on de novo capillary growth in vimentin deficiency was investigated.
Vimentin homozygous-deficient mice (vim^−/−) and vimentin-heterozygous-deficient mice (vim^+/−) in the 129/Svev background were obtained from David Markovitz (University of Michigan Medical Center) and breeding colonies established at the University of Kentucky. All mice were housed in specific pathogen-free cages in designated lab animal housing facilities. Age-matched littermates were genotyped by polymerase chain reaction, as described, and vim^−/− and vim^+/+ mice were employed for corneal vascularization experiments. In brief, mice between 4-6 weeks of age were anesthetized by intraperiteoneal injection (i.p.) of ketamine and xylazine. Corneas were topically anesthetized by application of proparacain drop and 1 microliter drop of dilute 0.1 M sodium hydroxide was applied for 1 minute. […] Upon recovery from anesthesia, mice were replaced in cages and monitored by trained personnel for resumption of normal activity. […] Fluorescence was quantified by importing images in NIH ImageJ, as taught by Ambati, B. K. et al., Sustained inhibition of corneal neovascularization by genetic ablation of CCR5, Invest. […]

[10] = target: T2, 56 kDa protein (vimentin) in HUVECs (Homo sapiens, UniProt P08670); assay: WFA-B labelling of proteins in HUVECs (streptavidin-HRP blot); format: binding; conditions: WFA-B 2 hours, WFA-competitive
T2 construct: host or cells: HUVECs
Experimental: LC-MS/MS characterization of this protein identified the 56 kDa protein as vimentin (27% protein coverage), an IF protein that is abundant in mesenchymal cells. To further support that vimentin is bound by WFA-B in vivo, HUVECs were treated with WFA-B in the presence and absence of unconjugated WFA, and total cellular lysates were gel-fractionated and protein blots probed with streptavidin-HRP. […] This experiment was conducted using cells preincubated with DMSO or WFA for 30 minutes and subsequently with WFA-B for 2 hours. Soluble proteins extracted in 1% Triton X-100 were fractionated by SDS-PAGE and blotted. This blot, as well as those of FIGS. 1d and 1e, were developed with Streptavidin-HRP. Biotin label is incorporated in this 56 kDa protein in a WFA-competitive manner.
As shown in the blot of FIG. 1d, WFA-B binds vimentin in HUVECs. The blot of FIG. 1d was produced using cell cultures preincubated with DMSO (Veh) or with 5 μM WFA or 1 μM (WFA*) for 30 minutes and subsequently with 5 μM WFA-B for 2 hours.

T1 sequence (P02544 2-465 limits assumed): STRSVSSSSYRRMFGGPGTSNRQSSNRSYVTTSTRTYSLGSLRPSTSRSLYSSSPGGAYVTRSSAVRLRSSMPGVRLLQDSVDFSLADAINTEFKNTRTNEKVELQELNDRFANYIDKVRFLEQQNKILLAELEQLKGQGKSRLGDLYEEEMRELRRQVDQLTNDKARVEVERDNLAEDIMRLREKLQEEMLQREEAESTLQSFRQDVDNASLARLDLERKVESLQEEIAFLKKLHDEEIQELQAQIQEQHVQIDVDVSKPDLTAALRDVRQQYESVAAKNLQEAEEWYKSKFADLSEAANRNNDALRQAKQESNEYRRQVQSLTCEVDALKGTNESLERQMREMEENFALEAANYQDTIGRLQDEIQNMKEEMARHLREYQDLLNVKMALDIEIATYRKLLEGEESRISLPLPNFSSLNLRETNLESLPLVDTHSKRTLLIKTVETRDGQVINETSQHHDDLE
soluble hamster vimentin, sequence (P02544 whole entry): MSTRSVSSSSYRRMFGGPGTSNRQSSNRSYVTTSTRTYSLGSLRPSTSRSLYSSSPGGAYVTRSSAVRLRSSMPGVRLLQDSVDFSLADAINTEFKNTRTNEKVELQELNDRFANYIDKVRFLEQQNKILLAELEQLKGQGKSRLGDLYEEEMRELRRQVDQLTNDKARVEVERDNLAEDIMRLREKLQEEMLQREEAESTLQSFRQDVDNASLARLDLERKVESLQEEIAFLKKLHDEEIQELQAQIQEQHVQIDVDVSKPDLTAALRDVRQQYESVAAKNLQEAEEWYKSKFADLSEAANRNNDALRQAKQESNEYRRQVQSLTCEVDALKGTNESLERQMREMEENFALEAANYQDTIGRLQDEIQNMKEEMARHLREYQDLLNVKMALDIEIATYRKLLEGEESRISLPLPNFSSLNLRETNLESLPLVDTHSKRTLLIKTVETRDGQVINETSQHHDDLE
T2 sequence (P08670 whole entry): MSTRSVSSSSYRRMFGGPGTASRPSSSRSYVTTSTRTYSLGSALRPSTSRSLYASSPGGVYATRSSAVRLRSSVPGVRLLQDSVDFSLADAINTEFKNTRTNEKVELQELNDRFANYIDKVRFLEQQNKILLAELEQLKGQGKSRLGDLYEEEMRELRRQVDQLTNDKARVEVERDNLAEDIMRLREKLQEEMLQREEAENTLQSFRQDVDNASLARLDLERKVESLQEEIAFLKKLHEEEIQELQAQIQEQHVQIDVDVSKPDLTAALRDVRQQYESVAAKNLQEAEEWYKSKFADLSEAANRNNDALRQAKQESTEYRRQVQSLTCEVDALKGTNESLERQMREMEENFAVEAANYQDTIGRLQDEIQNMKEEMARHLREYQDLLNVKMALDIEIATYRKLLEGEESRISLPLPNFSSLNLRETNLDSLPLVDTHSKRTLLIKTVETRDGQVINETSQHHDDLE
purified hamster vimentin, sequence (P02544 whole entry): as the sequence (P02544 whole entry) above

covalent modification of cysteine residue at position 327 [4] | inhibition of the 20S proteasome's major catalytic function ([7]; 10 μM) | Kobs/[I], efficiency of inactivation ([7]; WFA 0.5-10 μM, epoxomicin 10-75 nM) [M^−1S^−1] | SMILES | in vitro binding to vimentin [1] | effect on vimentin polymerization [2] | vimentin filament phenotype [3] | levels of polyubiquitinated proteins [5] | rate of apoptosis, wild-type cells versus vimentin-deficient cells [6] [fold] | concentration giving dose-dependent increases in vimentin cleavage products ([8]; detectable by 2 hours) | inhibition of neovascularization ([9]; vimentin-null mice, n=10, P=0.005) [%] | inhibition of neovascularization ([9]; wild-type mice, n=8, P=0.002) [%] | binding to 56 kDa protein in cells [10] | effect on full-length vimentin isoforms (two-dimensional western blot) ([8]; data not shown)
 |  |  | CC1=C(CO)C(=O)O[C@@H]([C@@H](C)[C@H]2CC[C@H]3[C@@H]4[C@@H]5O[C@@H]5[C@@]5(O)CC=CC(=O)[C@]5(C)[C@H]4CC[C@]23C)C1 [12-D WS] | lack of in vitro binding activity | does not disrupt vimentin polymerization |  |  |  |  |  |  |  | 
uniquely modified by WFA | minimally inhibits | 340±80 | CC1=C(CO)C(=O)O[C@@H]([C@@H](C)[C@H]2CC[C@H]3[C@@H]4C[C@H]5O[C@]56[C@@H](O)C=CC(=O)[C@]6(C)[C@H]4CC[C@]23C)C1 [WFA, Withaferin A] |  | produces extensive filamentous aggregates | condensation of vimentin filaments around the perinuclear region | increases levels of polyubiquitinated proteins | 7 | above 2 μM | 29 | 73 |  | 
 |  |  | CC1=C(COC(=O)CNC(=O)CCCCCNC(=O)CCCCCNC(=O)CCCCC2SCC3NC(=O)NC32)C(=O)OC([C@@H](C)C2CCC3C4C[C@H]5O[C@]56C(O)C=CC(=O)[C@]6(C)C4CC[C@@]32C)C1 (stereo partly drawn) [WFA-B, WFA-Gly-LC-LC-biotin] | bound by WFA-B in a WFA-competitive manner |  |  |  |  |  |  |  | binds to the 56 kDa protein in HUVECs | causes several full-length (˜53-56 kDa) isoforms of vimentin to disappear
